For test [1], the target named is T1, BAS0541T (Bacillus anthracis, UniProt A0A384L3H6).
T1 construct: gene GBAA_0572
To be noted: labelled compound ([gamma-32P]ATP mixed with 2.5 uM ATP), 4 mM MgCl2, pH 8, 37 °C.

For test [2], the target named is T2, BAS0540 (Bacillus anthracis, UniProt A0A6L7HQL1).
T2 construct: gene GBAA_0571
The settings on record: 60 mM donor, 20 mM MgCl2, pH 7.5, 37 °C; covalent phosphorylation, probable acceptor Asp50.

SMILES strings stand for the structures.

T2 sequence (A0A6L7HQL1 1-223 limits assumed): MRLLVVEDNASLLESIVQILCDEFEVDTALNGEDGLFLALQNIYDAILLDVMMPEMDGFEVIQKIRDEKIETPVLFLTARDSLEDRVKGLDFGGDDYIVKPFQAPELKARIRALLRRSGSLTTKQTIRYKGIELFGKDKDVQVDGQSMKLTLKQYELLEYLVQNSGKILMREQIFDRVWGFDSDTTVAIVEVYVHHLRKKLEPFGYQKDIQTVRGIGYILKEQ
T1 sequence (A0A384L3H6 190-416 limits assumed): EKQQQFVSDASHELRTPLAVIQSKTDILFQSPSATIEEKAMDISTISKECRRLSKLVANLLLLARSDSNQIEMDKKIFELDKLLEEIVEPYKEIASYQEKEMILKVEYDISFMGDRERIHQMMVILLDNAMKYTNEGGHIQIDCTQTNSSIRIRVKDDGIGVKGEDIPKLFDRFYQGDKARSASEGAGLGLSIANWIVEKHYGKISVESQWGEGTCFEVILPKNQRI

As to `Nc1ncnc2c1ncn2[C@@H]1O[C@H](COP(=O)(O)OP(=O)(O)OP(=O)(O)O)[C@@H](O)[C@H]1O` [ATP], in test [1], the “autophosphorylation, SDS-PAGE autoradiography” value is given as “Autophosphorylation was assayed by incubating the purified BAS0541T with radiolabelled ATP mixture”.
On to `NC(=O)OP(=O)(O)O` [carbamoyl phosphate], for which, in test [2], the “phosphorylation by small-molecule donor, native PAGE, Coomassie” value was “physiologically relevant small molecule phosphodonors, AcP and CP”.
For `CC(=O)OP(=O)(O)O` [acetyl phosphate], in test [2], the “phosphorylation by small-molecule donor, native PAGE, Coomassie” value is “physiologically relevant small molecule phosphodonors, AcP and CP”.

The values are drawn from PMC4938410 (PLoS ONE, 2016).
